Active and inactive are the calls of the source. The rule behind the calls is not given here.
Biological target: T1, Galactofuranosyltransferase GlfT2 (Mycobacterium tuberculosis) (UniProt O53585)
T1 sequence (whole entry): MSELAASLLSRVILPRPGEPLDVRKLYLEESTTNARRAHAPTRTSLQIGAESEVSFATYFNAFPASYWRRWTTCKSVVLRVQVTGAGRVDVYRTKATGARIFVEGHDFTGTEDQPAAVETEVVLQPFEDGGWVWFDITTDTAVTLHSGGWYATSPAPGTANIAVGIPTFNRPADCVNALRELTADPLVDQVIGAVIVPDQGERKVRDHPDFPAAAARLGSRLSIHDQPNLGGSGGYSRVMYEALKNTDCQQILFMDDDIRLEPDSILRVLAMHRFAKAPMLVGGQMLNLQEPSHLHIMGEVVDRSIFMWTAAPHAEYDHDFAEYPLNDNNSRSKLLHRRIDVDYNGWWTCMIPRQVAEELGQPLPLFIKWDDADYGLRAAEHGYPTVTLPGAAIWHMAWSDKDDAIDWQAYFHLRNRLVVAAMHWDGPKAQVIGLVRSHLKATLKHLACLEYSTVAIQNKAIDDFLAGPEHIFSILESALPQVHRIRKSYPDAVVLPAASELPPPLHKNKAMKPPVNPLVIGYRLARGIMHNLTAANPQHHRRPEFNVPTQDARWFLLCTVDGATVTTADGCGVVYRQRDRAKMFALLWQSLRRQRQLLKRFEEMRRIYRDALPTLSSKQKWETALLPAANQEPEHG
Assay: Inhibition of Mycobacterium tuberculosis recombinant GlfT2 using beta-D-Galf-(1-5)-beta-D-Galf-(1-6)-beta-D-Galf-octyl as acceptor and UDP-Galf as donor substrate at 4 mM by coupled spectrophotometric assay

SMILES | inhibition
CCC[S+]1C[C@H]([C@H](O)CO)[C@H](O)C1 (some centres undefined) | inactive
OCCC[S+]1C[C@H]([C@H](O)CO)[C@H](O)C1 (some centres undefined) | inactive
COCCCCCCCC[S+]1C[C@H]([C@H](O)CO)[C@H](O)C1 (some centres undefined) | inactive
CCCCCCCC[S+]1C[C@H]([C@H](O)CO)[C@H](O)C1 (some centres undefined) | inactive
OCCCCCCCCCCCC[S+]1C[C@H]([C@H](O)CO)[C@H](O)C1 (some centres undefined) | 60%
OC[C@@H](O)[C@H]1C[S+](CC2CCCCC2)C[C@H]1O (some centres undefined) | inactive
OCCCCCCCC[S+]1C[C@H]([C@H](O)CO)[C@H](O)C1 (some centres undefined) | inactive
OC[C@@H](O)[C@H]1C[S+](Cc2ccccc2)C[C@H]1O (some centres undefined) | inactive
O=c1ccn([C@@H]2O[C@H](COCCC[S+]3C[C@H]([C@H](O)CO)[C@H](O)C3)[C@@H](O)[C@H]2O)c(=O)[nH]1 (some centres undefined) | inactive
O=[N+]([O-])c1ccc(C[S+]2C[C@H]([C@H](O)CO)[C@H](O)C2)cc1 (some centres undefined) | inactive
O=c1ccn([C@@H]2O[C@H](COCCCC[S+]3C[C@H]([C@H](O)CO)[C@H](O)C3)[C@@H](O)[C@H]2O)c(=O)[nH]1 (some centres undefined) | inactive
OC[C@@H](O)[C@H]1C[S+](CCc2ccccc2)C[C@H]1O (some centres undefined) | inactive
CC(C)C[S+]1C[C@H]([C@H](O)CO)[C@H](O)C1 (some centres undefined) | inactive
COCC[S+]1C[C@H]([C@H](O)CO)[C@H](O)C1 (some centres undefined) | inactive
